Measurements published in patent US9562044B2, “2-acylaminothiazole derivative or salt thereof” (ASTELLAS PHARMA INC., priority 2013, dated 2017).
Structures can show the parent of a compound that is named as a salt.

Tests used:
[1] = test system: intravesical pressure in anesthetized rats; experiment: Pelvic nerve electrical stimulation-induced elevation of intravesical pressure in anesthetized rats; assay type: in vivo, rat; details: 3 mg/kg intravenous; maximum effect during 1 hour after administration; pre-treatment AUC = 100%; SD female rats
Procedure: Effect on Pelvic Nerve Electrical Stimulation-Induced Elevation of Intravesical Pressure in Anesthetized Rats
As an effect on the nerve stimulation-dependent bladder contraction in vivo, the effect of the Example compound of the present invention in the pelvic nerve electrical stimulation-induced elevation of the intravesical pressure in rats was measured by the following method. That is, using SD female rats (Japan SLC, Inc.), the lower abdomen was incised in the midline under anesthesia with pentobarbital (50 mg/kg ip). The ureter on both sides was ligated and cut, and then a cannula for measuring the intravesical pressure (PE-50) was inserted into the bladder from the external urethral orifice and fixed by a clip. About 200 μL of physiological saline was injected through the cannula inserted into the bladder, the other side was then connected to a pressure transducer, and the intravesical pressure was measured. Under observation using a stereomicroscope, the pelvic nerve near the bladder was isolated and an electrode (Unique Medical) for nerve stimulation was placed. The abdominal cavity was filled with mineral oil (MP BIOMEDICALS). […] After the elevation of the intravesical pressure by electrical stimulation was stabilized three times or more, the test substance (dose of 3 mg/kg) was administered at a volume of 1 mL/kg from a catheter placed in the vein and the effect of the test substance on the elevation of the intravesical pressure was measured for 1 hour. […]
The responses were put into a personal computer through PowerLab (registered trademark) (AD Instruments), and analyzed with LabChart (registered trademark). The AUC of each elevation of the intravesical pressure was calculated. The average value of three values before the treatment with the test substance was set to 100%, and the elevation rate of the intravesical pressure (% of pre) after the treatment with the test substance was calculated. […]

isolated rat bladder = experiment: Transmural electrical field stimulation-induced contraction of isolated rat bladder; details: AUC of contractile response, value before treatment = 100%, SD female rat bladder strip, read-out: Enhancement rate of isolated bladder contraction (% of pre)
Procedure: Effects on Transmural Electrical Field Stimulation-Induced Contraction of Isolated Rat Bladder
As an effect on the nerve stimulation-dependent bladder contraction in vitro, the effect of the Example compound of the present invention in the transmural electrical field stimulation-induced contraction of isolated rat bladder was measured by the following method. That is, from the bladder isolated from a Spraque-Dawley (SD) female rat (Japan SLC, Inc.), a longitudinal bladder strip having a width of about 2 mm and a length of about 10 mm was prepared. The prepared bladder strip was suspended in an organ bath filled with 10 mL of a Krebs-Henseleit solution. The Krebs-Henseleit solution was bubbled with 95% O2 and 5% CO2, and kept at 37° C. After stabilization at an initial tension of 1 g, contraction was induced twice with 60 mM KCl. The strip was washed with the Krebs-Henseleit solution and stabilized, and then contraction was induced with transmural electrical field stimulation at 20 V (stimulation frequency of 8 Hz, pulse width of 0.3 msec, and stimulation time of 10 seconds) by an electrical stimulation device (Nihon Kohden Corporation). At an interval of 2 minutes, transmural electrical field stimulation was repeated and the voltage was adjusted to make the contractile amplitude about 50% of the contractile response by 20 V. After stabilization of the contraction by the transmural electrical field stimulation, 10 μL of the test substance (final concentrations of 3 μM, 10 μM, and 30 μM), which had been dissolved in 100% dimethylsulfoxide in advance was added. The test substance was cumulatively administered at the next concentration after the contractile response at a lower concentration had been stabilized. The responses were put into a personal computer through PowerLab (registered trademark) (AD Instruments), and analyzed with LabChart (registered trademark) (AD Instruments). The area under the response of each contractile response (area under curve, AUC) was calculated and the value before the treatment with the test substance was set to 100%. Based on this, the enhancement rate of the isolated bladder contraction (% of pre) after the treatment with the test substance was calculated.
The enhancement rates of the isolated bladder contraction due to several 10 μM Example compounds which are the compounds of the formula (I) are shown in Table 2.

| SMILES | Elevation rate of intravesical pressure (% of pre) [1] | activity at 10 µM (isolated rat bladder) |
| --- | --- | --- |
| CC[C@@H]1CCCN1Cc1sc(NC(=O)c2cnc(N3CCC(C(=O)O)CC3)cn2)nc1-c1cc(F)cc(C(F)(F)F)c1 [Example 115] | 131 % of pre | 121% |
| C[C@@H]1CCCN1Cc1sc(NC(=O)c2cnc(N3CCC(C(=O)O)CC3)cn2)nc1-c1cc(Cl)cs1 [Example 4, 1-(5-{[4-(4-chloro-2-thienyl)-5-{[(2R)-2-methylpyrrolidin-1-yl]methyl}-1,3-thiazol-2-yl]carbamoyl}pyrazin-2-yl)piperidine-4-carboxylic acid dihydrochloride] | 184 % of pre | 180% |
| CC[C@@H]1CCCN1Cc1sc(NC(=O)c2cnc(N3CCC(C(=O)O)CC3)cn2)nc1-c1ccc(OC)c(C(F)(F)F)c1 [Example 156] | 130 % of pre | 135% |
